Reference: patent US20070026080A1, “Manufacturing process for tigecycline” (Wyeth, priority 2005, published 2007)

Assay: Strength and degradation profile of tigecycline 20 mg/mL bulk solutions by reversed phase HPLC (effect of temperature, time, pH, dissolved oxygen; Runs A to O)
Format: physicochemical
Settings: pH 7.7, Oxygen = 0.1 mg/L
Description: The contents of the sample vials are dissolved in diluent. The sample solution is diluted, if necessary, and chromatographed on a reversed phase column using gradient elution. Impurities are determined by comparing the impurity peak areas in the sample preparation chromatogram to the average area of tigecycline peaks in the standard preparation chromatograms obtained concomitantly.
Chromatographic Column—Length about 15 cm, inside diameter about 4.6 mm, packed with Inertsil ODS2, 5 μm size particles or equivalent.
Detector—Ultraviolet spectrophotometric detector capable of operating at 248 nm with a sensitivity of about 0.5 absorbance units full scale.
The results of additional studies to investigate the effect of processing parameters such as temperature, time, and dissolved oxygen content on the purity profile of tigecycline solutions using the following materials, methods and procedures are presented in Tables A to O.
The experiments were run in plastic glove bags under normal laboratory light conditions. Plastic glove boxes will be used to control the headspace of the beakers. The batch size was 200 mL. • 1. Prepare the glove bag with a mixture of nitrogen and air to achieve an oxygen level in the solution as per the design. • 2. Place the jacketed beaker on the magnetic stirrer. Connect it to the cooler. Set the cooler to the desired set point. • 3. Add 200 mL of SWFI in to the beaker. Allow equilibrating. Measure the temperature and oxygen content. When it reaches the desired condition, add accurately weighed API and mix until dissolved. If necessary use spatula to aid dissolution. For pH adjustments, use 4 mL of either 0.1N NaOH or 0.1N HCl and 196 mL of WFI for manufacture. • 4. After complete dissolution, Transfer about 5.5 mL of Solution in vials and stopper them. These vials will be stoppered at the appropriate headspace conditions. Place the vials in appropriate temperature conditions. • 5. Sample the vials at 1, 4, 8, 10, 12 and 24 hours. Send the samples for analysis. Freeze the 10, 12 and 24 samples at −20° C. for analysis the following day. • 6. Measure pH and record color of the solution at each time point. Results
The 1-hour samples were taken directly from the beakers. Samples for later time points were collected in stoppered vials processed in the atmosphere of the bag in order to simulate the headspace conditions then placed in water baths or refrigerator to maintain there respective temperature conditions. This was done to maintain safety in the lab. Disposable plastic glove bags require constant flow of a mixture of nitrogen and air to maintain headspace oxygen level that will result in the desired dissolved oxygen (DO) content in the sample. The pH of samples was measured at each sample points.
Strength and degradation profile was analyzed by HPLC as described above. […] Degradation was slightly higher at higher temperature condition.

## CN(C)c1cc(NC(=O)CNC(C)(C)C)c(O)c2c1C[C@H]1C[C@H]3[C@H](N(C)C)C(O)=C(C(N)=O)C(=O)[C@@]3(O)C(O)=C1C2=O [Tigecycline]
Run #L, 2° C., 12 Hrs
  RRT 1.45: 0.07%
  RRT 1.58: BRL (BRL means below reporting limit (meaning less than 0.05% of tigecycline peak))
  RRT 1.64 Mino: 0.14%
  RRT 1.67 MW = 556: BRL (BRL means below reporting limit (meaning less than 0.05% of tigecycline peak))
  RRT 1.85 MW = 597: 0.08%
  Strength: 19.448 mg/mL
  Total: 0.58%
Run #L, 2° C., 24 Hrs
  RRT 0.12 MW = 633: BRL (BRL means below reporting limit (meaning less than 0.05% of tigecycline peak))
  RRT 0.23 MW = 572: BRL (BRL means below reporting limit (meaning less than 0.05% of tigecycline peak))
  RRT 0.50 MW = 601: BRL (BRL means below reporting limit (meaning less than 0.05% of tigecycline peak))
  RRT 0.55 MW = 583: BRL (BRL means below reporting limit (meaning less than 0.05% of tigecycline peak))
  RRT 0.58: 0.09%
  RRT 0.64 9-Amino: BRL (BRL means below reporting limit (meaning less than 0.05% of tigecycline peak))
  RRT 0.74 Epimer: 0.21%
  RRT 0.76: BRL (BRL means below reporting limit (meaning less than 0.05% of tigecycline peak))
  RRT 0.78 MW = 557: BRL (BRL means below reporting limit (meaning less than 0.05% of tigecycline peak))
  RRT 1.12: BRL (BRL means below reporting limit (meaning less than 0.05% of tigecycline peak))
  RRT 1.45: 0.08%
  RRT 1.58: BRL (BRL means below reporting limit (meaning less than 0.05% of tigecycline peak))
  RRT 1.64 Mino: 0.13%
  RRT 1.67 MW = 556: BRL (BRL means below reporting limit (meaning less than 0.05% of tigecycline peak))
  RRT 1.85 MW = 597: 0.09%
  Strength: 19.156 mg/mL
  Total: 0.61%
Run #M, 8° C., 1 Hrs
  RRT 0.12 MW = 633: BRL (BRL means below reporting limit (meaning less than 0.05% of tigecycline peak))
  RRT 0.23 MW = 572: BRL (BRL means below reporting limit (meaning less than 0.05% of tigecycline peak))
  RRT 0.50 MW = 601: BRL (BRL means below reporting limit (meaning less than 0.05% of tigecycline peak))
  RRT 0.55 MW = 583: BRL (BRL means below reporting limit (meaning less than 0.05% of tigecycline peak))
  RRT 0.58: 0.08%
  RRT 0.64 9-Amino: BRL (BRL means below reporting limit (meaning less than 0.05% of tigecycline peak))
  RRT 0.74 Epimer: 0.20%
  RRT 0.76: 0.06%
  RRT 0.78 MW = 557: BRL (BRL means below reporting limit (meaning less than 0.05% of tigecycline peak))
  RRT 1.12: BRL (BRL means below reporting limit (meaning less than 0.05% of tigecycline peak))
  RRT 1.45: BRL (BRL means below reporting limit (meaning less than 0.05% of tigecycline peak))
  RRT 1.58: BRL (BRL means below reporting limit (meaning less than 0.05% of tigecycline peak))
  RRT 1.64 Mino: 0.14%
  RRT 1.67 MW = 556: BRL (BRL means below reporting limit (meaning less than 0.05% of tigecycline peak))
  RRT 1.85 MW = 597: BRL (BRL means below reporting limit (meaning less than 0.05% of tigecycline peak))
  Strength: 19.270 mg/mL
  Total: 0.47%
Run #M, 8° C., 4 Hrs
  RRT 0.12 MW = 633: BRL (BRL means below reporting limit (meaning less than 0.05% of tigecycline peak))
  RRT 0.23 MW = 572: BRL (BRL means below reporting limit (meaning less than 0.05% of tigecycline peak))
  RRT 0.50 MW = 601: BRL (BRL means below reporting limit (meaning less than 0.05% of tigecycline peak))
  RRT 0.55 MW = 583: BRL (BRL means below reporting limit (meaning less than 0.05% of tigecycline peak))
  RRT 0.58: 0.07%
  RRT 0.64 9-Amino: BRL (BRL means below reporting limit (meaning less than 0.05% of tigecycline peak))
  RRT 0.74 Epimer: 0.23%
  RRT 0.76: 0.06%
  RRT 0.78 MW = 557: BRL (BRL means below reporting limit (meaning less than 0.05% of tigecycline peak))
  RRT 1.12: BRL (BRL means below reporting limit (meaning less than 0.05% of tigecycline peak))
  RRT 1.45: 0.06%
  RRT 1.58: BRL (BRL means below reporting limit (meaning less than 0.05% of tigecycline peak))
  RRT 1.64 Mino: 0.08%
  RRT 1.67 MW = 556: BRL (BRL means below reporting limit (meaning less than 0.05% of tigecycline peak))
  RRT 1.85 MW = 597: 0.06%
  Strength: 19.340 mg/mL
  Total: 0.57%
Run #M, 8° C., 8 Hrs
  RRT 0.12 MW = 633: BRL (BRL means below reporting limit (meaning less than 0.05% of tigecycline peak))
  RRT 0.23 MW = 572: BRL (BRL means below reporting limit (meaning less than 0.05% of tigecycline peak))
  RRT 0.50 MW = 601: BRL (BRL means below reporting limit (meaning less than 0.05% of tigecycline peak))
  RRT 0.55 MW = 583: BRL (BRL means below reporting limit (meaning less than 0.05% of tigecycline peak))
  RRT 0.58: 0.08%
  RRT 0.64 9-Amino: BRL (BRL means below reporting limit (meaning less than 0.05% of tigecycline peak))
  RRT 0.74 Epimer: 0.24%
  RRT 0.76: 0.06%
  RRT 0.78 MW = 557: BRL (BRL means below reporting limit (meaning less than 0.05% of tigecycline peak))
  RRT 1.12: BRL (BRL means below reporting limit (meaning less than 0.05% of tigecycline peak))
  RRT 1.45: 0.07%
  RRT 1.58: BRL (BRL means below reporting limit (meaning less than 0.05% of tigecycline peak))
  RRT 1.64 Mino: 0.11%
  RRT 1.67 MW = 556: BRL (BRL means below reporting limit (meaning less than 0.05% of tigecycline peak))
  RRT 1.85 MW = 597: 0.06%
  Strength: 19.238 mg/mL
  Total: 0.62%
Run #M, 8° C., 10 Hrs
  RRT 0.12 MW = 633: BRL (BRL means below reporting limit (meaning less than 0.05% of tigecycline peak))
  RRT 0.23 MW = 572: BRL (BRL means below reporting limit (meaning less than 0.05% of tigecycline peak))
  RRT 0.50 MW = 601: BRL (BRL means below reporting limit (meaning less than 0.05% of tigecycline peak))
  RRT 0.55 MW = 583: 0.09%
  RRT 0.58: 0.07%
  RRT 0.64 9-Amino: BRL (BRL means below reporting limit (meaning less than 0.05% of tigecycline peak))
  RRT 0.74 Epimer: 0.25%
  RRT 0.76: 0.05%
  RRT 0.78 MW = 557: BRL (BRL means below reporting limit (meaning less than 0.05% of tigecycline peak))
